Key:
Type in all cases: in vivo
[1] = test system: sugar beet (Beta vulgaris); test: Test B pre-/postemergence; set-up: key: 0 is no effect; 10 is complete control
Method in brief: (§1)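 Response scores run from 0, meaning no effect, to 10, meaning complete control, assigned by eye relative to controls twelve to sixteen days after spraying. Treatment was both preemergence on planted seed and postemergence on plants at the 1- to 4-leaf stage.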

[2] = test system: broadleaf signalgrass (Brachiaria decumbens); test: Test B pre-/postemergence; set-up: key: 0 is no effect; 10 is complete control
Method in brief: as §1

[3] = test system: corn (Zea mays); test: Test B pre-/postemergence; set-up: key: 0 is no effect; 10 is complete control
Method in brief: as §1

[4] = test system: pigweed (Amaranthus retroflexus); test: Test B pre-/postemergence; set-up: key: 0 is no effect; 10 is complete control
Method in brief: as §1

[5] = test system: cocklebur (Xanthium strumarium); test: Test B pre-/postemergence; set-up: key: 0 is no effect; 10 is complete control
Method in brief: as §1

[6] = test system: velvetleaf (Abutilon theophrasti); test: Test B pre-/postemergence; set-up: key: 0 is no effect; 10 is complete control
Method in brief: as §1

[7] = test system: rape (Brassica napus); test: Test B pre-/postemergence; set-up: key: 0 is no effect; 10 is complete control
Method in brief: as §1

[8] = test system: momingglory (Ipomoea hederacea); test: Test B pre-/postemergence; set-up: key: 0 is no effect; 10 is complete control
Method in brief: as §1

[9] = test system: wheat (Triticum aestivum); test: Test B pre-/postemergence; set-up: key: 0 is no effect; 10 is complete control
Method in brief: as §1

[10] = test system: bedstraw (Galium aparine); test: Test B pre-/postemergence; set-up: key: 0 is no effect; 10 is complete control
Method in brief: as §1

[11] = test system: giant foxtail (Setaria faberii); test: Test B pre-/postemergence; set-up: key: 0 is no effect; 10 is complete control
Method in brief: as §1

[12] = test system: smallflower flatsedge (Cyperus difformis); test: Test B flood test
Method in brief: (§2)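 Each value is a visual injury score relative to controls, with 10 meaning complete control and 0 no effect. Evaluation took place twelve to sixteen days after the 2-leaf-stage plants were treated and kept in the greenhouse.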

[13] = test system: bamyardgrass (Echinochloa crus-galli); test: Test B flood test
Method in brief: as §2

[14] = test system: duck salad (Heteranthera limosa); test: Test B flood test
Method in brief: as §2

[15] = test system: rice (Oryza sativa); test: Test B flood test
Method in brief: as §2

[16] = Rate 62 g/ha, Postemergence (flood test)
[17] = Rate 125 g/ha, Postemergence, flood test
[18] = Rate 250 g/ha, Postemergence (flood test species)
[19] = Rate 500 g/ha, Postemergence (flood test species)

Cc1cnc(-c2ccc(C(F)(F)F)cc2)nc1Cn1ccc(C(F)(F)C(F)(F)F)n1 [Compound 14]
Plant response rating, Sugarbeets ([1]; Rate 62 g/ha, Postemergence): 7
Sugarbeets plant response rating ([1]; Rate 62 g/ha, Preemergence): 3
Plant response rating, Sugarbeets ([1]; Rate 125 g/ha, Postemergence): 8
Sugarbeets plant response rating ([1]; Rate 125 g/ha, Preemergence): 5
Plant response rating, Sugarbeets ([1]; Rate 250 g/ha, Postemergence): 8
Plant response rating, Sugarbeets ([1]; Rate 250 g/ha, Preemergence): 6
Plant response rating, Sugarbeets ([1]; Rate 500 g/ha, Postemergence): 9
Plant response rating, Sugarbeets ([1]; Rate 500 g/ha, Preemergence): 9
Plant response rating, B. signalgrass ([2]; Rate 62 g/ha, Postemergence): 2
B. signalgrass plant response rating ([2]; Rate 62 g/ha, Preemergence): 0
Plant response rating, B. signalgrass ([2]; Rate 125 g/ha, Postemergence): 2
B. signalgrass plant response rating ([2]; Rate 125 g/ha, Preemergence): 0
Plant response rating, B. signalgrass ([2]; Rate 250 g/ha, Postemergence): 3
Plant response rating, B. signalgrass ([2]; Rate 250 g/ha, Preemergence): 0
Plant response rating, B. signalgrass ([2]; Rate 500 g/ha, Postemergence): 4
Plant response rating, B. signalgrass ([2]; Rate 500 g/ha, Preemergence): 5
Plant response rating, Corn ([3]; Rate 62 g/ha, Postemergence): 2
Corn plant response rating ([3]; Rate 62 g/ha, Preemergence): 0
Plant response rating, Corn ([3]; Rate 125 g/ha, Postemergence): 2
Corn plant response rating ([3]; Rate 125 g/ha, Preemergence): 0
Plant response rating, Corn ([3]; Rate 250 g/ha, Postemergence): 3
Plant response rating, Corn ([3]; Rate 250 g/ha, Preemergence): 0
Plant response rating, Corn ([3]; Rate 500 g/ha, Postemergence): 3
Plant response rating, Corn ([3]; Rate 500 g/ha, Preemergence): 3
Plant response rating, Redroot pigweed ([4]; Rate 62 g/ha, Postemergence): 8
Redroot pigweed plant response rating ([4]; Rate 62 g/ha, Preemergence): 0
Plant response rating, Redroot pigweed ([4]; Rate 125 g/ha, Postemergence): 9
Redroot pigweed plant response rating ([4]; Rate 125 g/ha, Preemergence): 2
Plant response rating, Redroot pigweed ([4]; Rate 250 g/ha, Postemergence): 9
Plant response rating, Redroot pigweed ([4]; Rate 250 g/ha, Preemergence): 4
Plant response rating, Redroot pigweed ([4]; Rate 500 g/ha, Postemergence): 9
Plant response rating, Redroot pigweed ([4]; Rate 500 g/ha, Preemergence): 4
Plant response rating, Cocklebur ([5]; Rate 62 g/ha, Postemergence): 4
Cocklebur plant response rating ([5]; Rate 62 g/ha, Preemergence): 0
Plant response rating, Cocklebur ([5]; Rate 125 g/ha, Postemergence): 7
Plant response rating, Cocklebur ([5]; Rate 250 g/ha, Postemergence): 7
Plant response rating, Cocklebur ([5]; Rate 250 g/ha, Preemergence): 0
Plant response rating, Cocklebur ([5]; Rate 500 g/ha, Postemergence): 7
Plant response rating, Velvetleaf ([6]; Rate 62 g/ha, Postemergence): 3
Velvetleaf plant response rating ([6]; Rate 62 g/ha, Preemergence): 0
Plant response rating, Velvetleaf ([6]; Rate 125 g/ha, Postemergence): 4
Velvetleaf plant response rating ([6]; Rate 125 g/ha, Preemergence): 0
Plant response rating, Velvetleaf ([6]; Rate 250 g/ha, Postemergence): 4
Plant response rating, Velvetleaf ([6]; Rate 250 g/ha, Preemergence): 1
Plant response rating, Velvetleaf ([6]; Rate 500 g/ha, Postemergence): 4
Plant response rating, Velvetleaf ([6]; Rate 500 g/ha, Preemergence): 7
Plant response rating, Rape ([7]; Rate 62 g/ha, Postemergence): 5
Rape plant response rating ([7]; Rate 62 g/ha, Preemergence): 0
Plant response rating, Rape ([7]; Rate 125 g/ha, Postemergence): 6
Rape plant response rating ([7]; Rate 125 g/ha, Preemergence): 1
Plant response rating, Rape ([7]; Rate 250 g/ha, Postemergence): 6
Plant response rating, Rape ([7]; Rate 250 g/ha, Preemergence): 2
Plant response rating, Rape ([7]; Rate 500 g/ha, Postemergence): 7
Plant response rating, Rape ([7]; Rate 500 g/ha, Preemergence): 8
Plant response rating, Morningglory ([8]; Rate 62 g/ha, Postemergence): 2
Morningglory plant response rating ([8]; Rate 62 g/ha, Preemergence): 0
Plant response rating, Morningglory ([8]; Rate 125 g/ha, Postemergence): 6
Morningglory plant response rating ([8]; Rate 125 g/ha, Preemergence): 0
Plant response rating, Morningglory ([8]; Rate 250 g/ha, Postemergence): 6
Plant response rating, Morningglory ([8]; Rate 250 g/ha, Preemergence): 2
Plant response rating, Morningglory ([8]; Rate 500 g/ha, Postemergence): 8
Plant response rating, Morningglory ([8]; Rate 500 g/ha, Preemergence): 8
Plant response rating, Wheat ([9]; Rate 62 g/ha, Postemergence): 0
Wheat plant response rating ([9]; Rate 62 g/ha, Preemergence): 0
Plant response rating, Wheat ([9]; Rate 125 g/ha, Postemergence): 0
Wheat plant response rating ([9]; Rate 125 g/ha, Preemergence): 0
Plant response rating, Wheat ([9]; Rate 250 g/ha, Postemergence): 2
Plant response rating, Wheat ([9]; Rate 250 g/ha, Preemergence): 0
Plant response rating, Wheat ([9]; Rate 500 g/ha, Postemergence): 3
Plant response rating, Wheat ([9]; Rate 500 g/ha, Preemergence): 0
Plant response rating, Bedstraw ([10]; Rate 62 g/ha, Postemergence): 4
Bedstraw plant response rating ([10]; Rate 62 g/ha, Preemergence): 0
Plant response rating, Bedstraw ([10]; Rate 125 g/ha, Postemergence): 4
Bedstraw plant response rating ([10]; Rate 125 g/ha, Preemergence): 0
Plant response rating, Bedstraw ([10]; Rate 250 g/ha, Postemergence): 8
Plant response rating, Bedstraw ([10]; Rate 250 g/ha, Preemergence): 0
Plant response rating, Bedstraw ([10]; Rate 500 g/ha, Postemergence): 10
Plant response rating, Bedstraw ([10]; Rate 500 g/ha, Preemergence): 2
Plant response rating, Giant foxtail ([11]; Rate 62 g/ha, Postemergence): 1
Giant foxtail plant response rating ([11]; Rate 62 g/ha, Preemergence): 0
Plant response rating, Giant foxtail ([11]; Rate 125 g/ha, Postemergence): 1
Giant foxtail plant response rating ([11]; Rate 125 g/ha, Preemergence): 4
Plant response rating, Giant foxtail ([11]; Rate 250 g/ha, Postemergence): 1
Plant response rating, Giant foxtail ([11]; Rate 250 g/ha, Preemergence): 7
Plant response rating, Giant foxtail ([11]; Rate 500 g/ha, Postemergence): 3
Plant response rating, Giant foxtail ([11]; Rate 500 g/ha, Preemergence): 9
Plant response rating, S. Flatsedge [12, 16]: 8
Plant response rating, S. Flatsedge [12, 17]: 8
Plant response rating, S. Flatsedge [12, 18]: 8
Plant response rating, S. Flatsedge [12, 19]: 9
Plant response rating, Barnyardgrass [13, 16]: 4
Plant response rating, Barnyardgrass [13, 17]: 5
Plant response rating, Barnyardgrass [13, 18]: 5
Plant response rating, Barnyardgrass [13, 19]: 6
Plant response rating, Ducksalad [14, 16]: 2
Plant response rating, Ducksalad [14, 17]: 2
Plant response rating, Ducksalad [14, 18]: 2
Plant response rating, Ducksalad [14, 19]: 3
Plant response rating, Rice [15, 16]: 4
Plant response rating, Rice [15, 17]: 4
Plant response rating, Rice [15, 18]: 5
Plant response rating, Rice [15, 19]: 5

Reference: patent US6525001B1, “Substituted pyrimidine and pyridine herbicides” (Mid-American Commercialization Corporation, priority 1997, dated 2003)
